Source: PubChem BioAssay AID179 (DTP/NCI, 2004)
Activity calls are given as the source filed them.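 Rule for the calls: active = compounds giving half or more protection of infected cells from virus-caused growth loss, again on retest; inactive = the rest.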 Where a SMILES comes first, the peptide text is derived from it. The star is where a group is joined. Cbz = O=C(OCc1ccccc1)*; OBn = c1ccc(CO*)cc1

System: CEM cells HIV-1 protection, formazan growth assay
Test: NCI AIDS Antiviral Assay
Details: for IC50: measured here: growth of uninfected CEM cells
How it was run: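 Five concentrations of each compound were applied to infected and uninfected human CEM cells. Protection from HIV-1 was judged from growth measured with a soluble formazan assay.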

`Cc1ccccc1NC(=O)Cc1csc2[n+]1C(=O)/C(=C/c1ccc([N+](=O)[O-])cc1)S2` was tested, and the EC50 was > 200 µM and the IC50 was 38.9 µM.
In the case of `CC(C)=NNC(=S)NC12CC3CC(CC(C3)C1)C2`, the outcome is reported as “inactive”.
For `C[N+](C)(C)CC1CCC(C[N+](C)(C)C)C1=O` (configuration not stated), the outcome was “inactive”.
With `COc1ccc(C)c2c1N[C@](C)([C@]1(C)Nc3c(OC)ccc(C)c3C1=O)C2=O` the EC50 was > 100 µM and the IC50 was > 100 µM.
`CC(=O)Nc1ccc(C(O)/C(=N/N)c2nc3ccc(Cl)cc3[nH]c2=O)cc1` (configuration not stated) was tested, and the EC50 was > 162 µM and the IC50 was > 162 µM.
For `COC(=O)CCCc1ccc2c(c1)CC1(Cc3ccccc3C1)C2`, the EC50 was > 200 µM and the IC50 was > 200 µM.
With `O=C(O)C(NCc1ccccc1)C(NCc1ccccc1)C(=O)O` (configuration not stated) the EC50 was > 200 µM and the IC50 was > 200 µM.
For `COP(=O)(OC)C(N)CCSC` (configuration not stated), the EC50 was > 200 µM and the IC50 was > 200 µM.
`CC(=O)c1cc2cc3c4c(c2oc1=O)CCCN4CCC3` was tested, and the EC50 was > 25.7 µM and the IC50 was > 25.7 µM.
In the case of `NC(=O)c1cn(Cc2ccccc2)c(=O)n1Cc1ccccc1`, the EC50 is reported as > 117 µM and the IC50 is reported as > 117 µM.
In the case of `C[n+]1c(-c2ccc(/C=N/NC(=O)c3ccc(C(=O)N/N=C/c4ccc(-c5cn6ccccc6[n+]5C)cc4)c(O)c3O)cc2)cn2ccccc21`, the EC50 is reported as 8.32 µM and the IC50 is reported as 8.71 µM.
In the case of `CCC1(O)C(=O)OCc2c1cc(-c1ccc(Cl)cc1)nc2OC` (configuration not stated), the EC50 is reported as > 200 µM and the IC50 is reported as > 200 µM.
In the case of `Nc1ccc(N=Nc2ccc(CCc3ccc(N=Nc4ccc(N)c5cc(S(=O)(=O)O)ccc45)cc3S(=O)(=O)O)c(S(=O)(=O)O)c2)c2ccc(S(=O)(=O)O)cc12`, the EC50 is reported as > 145 µM and the IC50 is reported as 53.7 µM.
For `O=[N+]([O-])C(=C(Sc1ccccc1)Sc1ccccc1)C(Cl)=C(Cl)Cl`, the outcome was “inactive”.
With `c1ccc(COc2nc3ccc(C45CC6CC(CC(C6)C4)C5)cc3[nH]2)cc1` the EC50 was > 200 µM and the IC50 was 7.41 µM.
With `N#Cc1ccc(Sc2ccccc2)cc1C#N` the EC50 was > 110 µM and the IC50 was > 110 µM.
For `CC1OC(O[C@H]2C3C=CO[C@@H](OC4OC(CO)C(O)C(O)C4O)C3[C@@]3(COC(=O)/C=C/c4ccccc4)O[C@@H]23)C(O)C(O)C1O` (some centres not stated), the EC50 was > 200 µM and the IC50 was > 200 µM.
In the case of `Cn1c(=O)c2nc3n(c2n(C)c1=O)C(=O)C(C(=O)O)N=N3` (configuration not stated), the EC50 is reported as > 200 µM and the IC50 is reported as > 200 µM.
In the case of `CCCCCC(=O)Cc1cc(OC)cc2c1C(=O)Oc1cc(O)c(C(=O)O)c(CC(=O)CCCCC)c1O2`, the EC50 is reported as > 339 µM and the IC50 is reported as 112 µM.
In the case of `Cc1cc(C)c(OC(=O)Nc2cccc3ccccc23)c(-c2ccccc2)c1`, the EC50 is reported as > 200 µM and the IC50 is reported as 19.5 µM.
In the case of `CN(C)CCC(CCN(C)C)=NO`, the EC50 is reported as > 955 µM and the IC50 is reported as > 955 µM.
`COC(=O)CNC(=O)C(C)NC(=O)C(CC(=O)OCc1ccccc1)NC(=O)OCc1ccccc1` (stereo not drawn) (Cbz-Asp(OBn)-Ala-Gly-OMe; configuration not given here) was tested, and the EC50 was > 200 µM and the IC50 was 107 µM.
With `CC(C)(C)OC(=O)N(CCCCN(CCCNC(=O)C(F)(F)F)C(=O)OC(C)(C)C)CCCNC(=O)C(F)(F)F` the outcome was “inactive”.
For `CN(C)CCCNc1c(C#N)[n+]([O-])c2cc(Cl)ccc2[n+]1[O-]`, the EC50 was > 2 µM and the IC50 was 1 µM.
With `CN1C(=O)/C(=C2\SC(=O)N(CN3CCCCC3)C2=O)c2ccccc21` the EC50 was > 200 µM and the IC50 was 27.5 µM.
For `Cc1c2c(n(CCN(C)C)c1C)NN=C(C#N)S2(=O)=O`, the EC50 was > 200 µM and the IC50 was > 200 µM.
For `O=P(O)(O)c1ccccc1Oc1ccccc1`, the EC50 was > 200 µM and the IC50 was > 200 µM.
In the case of `CCC1=CCN(c2cc(C)ccn2)OC1c1ccccc1` (configuration not stated), the EC50 is reported as > 35.5 µM and the IC50 is reported as > 35.5 µM.
`CCOC(=O)CNC(=O)N(CC)C12CC3CC(CC(C3)C1)C2` was tested, and the EC50 was > 200 µM and the IC50 was 129 µM.
`O=C(O)C1CSC2c3ccccc3C(=O)N12` (configuration not stated) was tested, and the EC50 was > 200 µM and the IC50 was > 200 µM.
With `Cc1ccc(N=Nc2cc(C)c(N)c(N=Nc3ccc(N=Nc4cc(C(=O)O)c(O)c(S(=O)(=O)O)c4)c(C)c3)c2N)cc1` the EC50 was 14.1 µM and the IC50 was > 100 µM.
`Cc1[nH]c2c(ccc3c2ccc2c(=O)c(C)c(C)[nH]c23)c(=O)c1C` was tested, and the EC50 was > 200 µM and the IC50 was 138 µM.
`Cc1ccc([N+](=O)[O-])cc1NC(=O)C(=O)C(C(=O)c1ccccc1F)C1OC(=O)c2ccccc21` (configuration not stated) was tested, and the EC50 was > 275 µM and the IC50 was 8.32 µM.
